Data on nine compounds can be found in BindingDB's records for doi:10.1124/jpet.106.101428 (Eli Lilly, 2006).

Targets include Glutamate receptor 4 (Homo sapiens, UniProt P48058); Glutamate receptor 2 (Homo sapiens, UniProt P42262); Glutamate receptor 1 (Homo sapiens, UniProt P42261).
Experiment [1] has as its target Glutamate receptor ionotropic, kainate 3 (Homo sapiens, UniProt Q13003).
Experiment [2] has as its target Glutamate receptor ionotropic, kainate 2 (Homo sapiens, UniProt Q13002).
Experiment [3] concerns the target T1, Glutamate receptor ionotropic, kainate 5 (Homo sapiens, UniProt Q16478).
T1 sequence (Q16478 whole entry): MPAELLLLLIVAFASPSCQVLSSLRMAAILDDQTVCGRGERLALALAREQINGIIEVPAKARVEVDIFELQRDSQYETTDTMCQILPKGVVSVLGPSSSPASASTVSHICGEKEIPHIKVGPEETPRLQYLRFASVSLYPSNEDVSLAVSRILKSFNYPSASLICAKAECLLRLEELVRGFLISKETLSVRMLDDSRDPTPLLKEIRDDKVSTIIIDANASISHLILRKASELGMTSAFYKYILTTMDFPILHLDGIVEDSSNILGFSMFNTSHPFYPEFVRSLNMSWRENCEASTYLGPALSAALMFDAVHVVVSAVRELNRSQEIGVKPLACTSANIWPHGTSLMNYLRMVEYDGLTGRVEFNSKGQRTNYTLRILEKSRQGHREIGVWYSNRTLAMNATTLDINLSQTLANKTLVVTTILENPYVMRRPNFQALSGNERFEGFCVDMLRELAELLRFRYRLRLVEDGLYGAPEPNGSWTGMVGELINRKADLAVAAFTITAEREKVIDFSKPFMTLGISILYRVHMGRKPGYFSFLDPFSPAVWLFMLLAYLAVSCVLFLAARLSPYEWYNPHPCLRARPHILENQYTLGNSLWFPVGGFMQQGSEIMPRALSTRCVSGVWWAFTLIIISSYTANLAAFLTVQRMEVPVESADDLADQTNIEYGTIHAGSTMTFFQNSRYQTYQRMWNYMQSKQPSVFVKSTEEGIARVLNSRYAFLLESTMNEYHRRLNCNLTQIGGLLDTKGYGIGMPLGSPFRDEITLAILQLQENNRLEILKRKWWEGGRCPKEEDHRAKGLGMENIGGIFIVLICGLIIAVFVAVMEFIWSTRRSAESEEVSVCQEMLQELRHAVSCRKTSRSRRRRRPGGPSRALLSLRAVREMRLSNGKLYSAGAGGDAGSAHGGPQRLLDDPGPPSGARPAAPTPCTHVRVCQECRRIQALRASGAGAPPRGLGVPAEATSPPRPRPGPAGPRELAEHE

Each structure is given as a SMILES string.

Chain of Glutamate receptor 2 (P42262 whole entry): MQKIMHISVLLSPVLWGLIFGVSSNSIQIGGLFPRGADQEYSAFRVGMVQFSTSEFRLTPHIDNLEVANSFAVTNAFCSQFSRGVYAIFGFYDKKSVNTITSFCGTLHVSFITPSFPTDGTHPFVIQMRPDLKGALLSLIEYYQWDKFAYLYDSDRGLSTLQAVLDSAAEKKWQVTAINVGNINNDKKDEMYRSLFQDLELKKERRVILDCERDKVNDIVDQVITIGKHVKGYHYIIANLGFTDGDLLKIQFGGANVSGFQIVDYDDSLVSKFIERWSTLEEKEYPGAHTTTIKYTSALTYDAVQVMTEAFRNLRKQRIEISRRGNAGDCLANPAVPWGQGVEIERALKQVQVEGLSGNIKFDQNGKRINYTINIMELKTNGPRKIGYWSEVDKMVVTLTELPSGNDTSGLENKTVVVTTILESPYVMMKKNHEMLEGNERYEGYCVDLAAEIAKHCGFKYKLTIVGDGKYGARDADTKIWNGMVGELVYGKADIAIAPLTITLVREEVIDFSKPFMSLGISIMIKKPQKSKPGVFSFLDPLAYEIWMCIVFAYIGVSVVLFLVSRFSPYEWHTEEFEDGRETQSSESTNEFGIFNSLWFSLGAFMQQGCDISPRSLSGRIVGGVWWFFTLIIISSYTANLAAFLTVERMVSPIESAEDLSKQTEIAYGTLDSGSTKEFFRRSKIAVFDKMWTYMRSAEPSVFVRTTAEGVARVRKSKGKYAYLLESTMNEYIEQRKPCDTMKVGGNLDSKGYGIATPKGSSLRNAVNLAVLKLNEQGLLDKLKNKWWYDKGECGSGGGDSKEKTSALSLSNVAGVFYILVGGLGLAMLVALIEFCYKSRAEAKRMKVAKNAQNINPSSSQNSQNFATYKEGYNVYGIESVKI
Chain of Glutamate receptor ionotropic, kainate 2 (Q13002 whole entry): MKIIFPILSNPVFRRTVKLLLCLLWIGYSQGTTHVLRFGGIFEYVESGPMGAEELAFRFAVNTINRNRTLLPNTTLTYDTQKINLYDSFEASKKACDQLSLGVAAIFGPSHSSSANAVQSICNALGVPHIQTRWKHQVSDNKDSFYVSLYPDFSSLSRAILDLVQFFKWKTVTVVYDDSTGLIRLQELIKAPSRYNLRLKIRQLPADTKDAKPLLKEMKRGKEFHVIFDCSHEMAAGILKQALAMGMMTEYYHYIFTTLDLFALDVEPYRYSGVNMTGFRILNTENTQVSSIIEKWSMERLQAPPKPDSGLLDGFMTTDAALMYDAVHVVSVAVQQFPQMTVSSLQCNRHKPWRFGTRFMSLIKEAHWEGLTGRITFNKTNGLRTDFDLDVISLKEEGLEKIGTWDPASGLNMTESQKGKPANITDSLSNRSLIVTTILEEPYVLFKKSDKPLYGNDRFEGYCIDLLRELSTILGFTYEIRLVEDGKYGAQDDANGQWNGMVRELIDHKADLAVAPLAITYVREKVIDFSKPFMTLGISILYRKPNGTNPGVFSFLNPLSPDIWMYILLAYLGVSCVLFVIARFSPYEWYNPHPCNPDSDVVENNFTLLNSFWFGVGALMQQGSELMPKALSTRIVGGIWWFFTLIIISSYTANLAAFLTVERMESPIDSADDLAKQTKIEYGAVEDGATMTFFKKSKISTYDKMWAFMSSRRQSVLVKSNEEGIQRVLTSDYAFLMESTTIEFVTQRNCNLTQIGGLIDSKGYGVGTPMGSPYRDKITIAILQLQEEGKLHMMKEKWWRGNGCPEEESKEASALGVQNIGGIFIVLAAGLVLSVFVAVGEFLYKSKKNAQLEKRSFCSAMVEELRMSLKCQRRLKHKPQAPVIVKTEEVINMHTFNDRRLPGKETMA
Chain of Glutamate receptor 4 (P48058 whole entry): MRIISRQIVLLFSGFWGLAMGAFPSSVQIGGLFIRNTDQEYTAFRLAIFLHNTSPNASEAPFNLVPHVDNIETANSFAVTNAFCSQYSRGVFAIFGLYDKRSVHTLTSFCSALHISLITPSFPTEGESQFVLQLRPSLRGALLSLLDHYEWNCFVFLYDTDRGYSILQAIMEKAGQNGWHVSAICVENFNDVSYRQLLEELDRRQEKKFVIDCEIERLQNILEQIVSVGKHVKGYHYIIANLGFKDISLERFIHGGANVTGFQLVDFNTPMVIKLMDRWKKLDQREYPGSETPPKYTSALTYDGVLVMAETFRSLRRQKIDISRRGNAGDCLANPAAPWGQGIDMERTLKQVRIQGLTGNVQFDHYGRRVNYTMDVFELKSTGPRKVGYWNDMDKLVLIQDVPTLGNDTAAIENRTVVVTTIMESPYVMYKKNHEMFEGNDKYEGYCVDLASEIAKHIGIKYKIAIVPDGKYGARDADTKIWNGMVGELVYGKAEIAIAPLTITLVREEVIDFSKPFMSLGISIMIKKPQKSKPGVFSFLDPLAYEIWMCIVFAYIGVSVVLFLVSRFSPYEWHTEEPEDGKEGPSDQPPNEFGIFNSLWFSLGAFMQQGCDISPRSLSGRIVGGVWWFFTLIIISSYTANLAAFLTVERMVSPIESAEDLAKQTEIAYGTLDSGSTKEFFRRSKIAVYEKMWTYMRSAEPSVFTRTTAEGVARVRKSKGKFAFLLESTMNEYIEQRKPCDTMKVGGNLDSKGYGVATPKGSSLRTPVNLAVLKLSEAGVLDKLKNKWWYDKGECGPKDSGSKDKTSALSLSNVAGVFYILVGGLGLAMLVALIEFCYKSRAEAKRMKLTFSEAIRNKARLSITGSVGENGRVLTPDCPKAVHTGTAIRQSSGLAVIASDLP
Chain of Glutamate receptor ionotropic, kainate 3 (Q13003 whole entry): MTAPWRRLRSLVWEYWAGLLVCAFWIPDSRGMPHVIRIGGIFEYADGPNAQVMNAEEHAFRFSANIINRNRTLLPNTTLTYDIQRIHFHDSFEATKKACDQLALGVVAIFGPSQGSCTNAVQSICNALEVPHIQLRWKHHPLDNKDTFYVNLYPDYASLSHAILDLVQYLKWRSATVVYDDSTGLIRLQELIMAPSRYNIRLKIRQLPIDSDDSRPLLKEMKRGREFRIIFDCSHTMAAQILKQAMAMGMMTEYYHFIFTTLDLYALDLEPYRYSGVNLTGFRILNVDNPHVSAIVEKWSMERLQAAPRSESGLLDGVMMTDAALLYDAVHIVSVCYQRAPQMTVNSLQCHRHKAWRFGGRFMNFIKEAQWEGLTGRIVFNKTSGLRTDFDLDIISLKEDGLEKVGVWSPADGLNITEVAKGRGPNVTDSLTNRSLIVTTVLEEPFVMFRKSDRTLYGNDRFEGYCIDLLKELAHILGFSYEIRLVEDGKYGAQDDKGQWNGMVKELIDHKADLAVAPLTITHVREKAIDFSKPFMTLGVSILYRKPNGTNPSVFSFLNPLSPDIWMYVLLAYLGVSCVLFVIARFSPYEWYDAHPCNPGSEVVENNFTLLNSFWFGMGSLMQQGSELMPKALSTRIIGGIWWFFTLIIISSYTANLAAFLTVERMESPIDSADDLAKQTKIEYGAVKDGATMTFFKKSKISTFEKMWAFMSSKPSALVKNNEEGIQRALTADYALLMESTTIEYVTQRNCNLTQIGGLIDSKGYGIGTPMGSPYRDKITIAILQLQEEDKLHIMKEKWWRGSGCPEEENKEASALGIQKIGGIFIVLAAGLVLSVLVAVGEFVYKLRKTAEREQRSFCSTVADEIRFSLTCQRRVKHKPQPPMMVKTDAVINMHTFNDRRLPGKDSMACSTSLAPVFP
Chain of Glutamate receptor 1 (P42261 whole entry): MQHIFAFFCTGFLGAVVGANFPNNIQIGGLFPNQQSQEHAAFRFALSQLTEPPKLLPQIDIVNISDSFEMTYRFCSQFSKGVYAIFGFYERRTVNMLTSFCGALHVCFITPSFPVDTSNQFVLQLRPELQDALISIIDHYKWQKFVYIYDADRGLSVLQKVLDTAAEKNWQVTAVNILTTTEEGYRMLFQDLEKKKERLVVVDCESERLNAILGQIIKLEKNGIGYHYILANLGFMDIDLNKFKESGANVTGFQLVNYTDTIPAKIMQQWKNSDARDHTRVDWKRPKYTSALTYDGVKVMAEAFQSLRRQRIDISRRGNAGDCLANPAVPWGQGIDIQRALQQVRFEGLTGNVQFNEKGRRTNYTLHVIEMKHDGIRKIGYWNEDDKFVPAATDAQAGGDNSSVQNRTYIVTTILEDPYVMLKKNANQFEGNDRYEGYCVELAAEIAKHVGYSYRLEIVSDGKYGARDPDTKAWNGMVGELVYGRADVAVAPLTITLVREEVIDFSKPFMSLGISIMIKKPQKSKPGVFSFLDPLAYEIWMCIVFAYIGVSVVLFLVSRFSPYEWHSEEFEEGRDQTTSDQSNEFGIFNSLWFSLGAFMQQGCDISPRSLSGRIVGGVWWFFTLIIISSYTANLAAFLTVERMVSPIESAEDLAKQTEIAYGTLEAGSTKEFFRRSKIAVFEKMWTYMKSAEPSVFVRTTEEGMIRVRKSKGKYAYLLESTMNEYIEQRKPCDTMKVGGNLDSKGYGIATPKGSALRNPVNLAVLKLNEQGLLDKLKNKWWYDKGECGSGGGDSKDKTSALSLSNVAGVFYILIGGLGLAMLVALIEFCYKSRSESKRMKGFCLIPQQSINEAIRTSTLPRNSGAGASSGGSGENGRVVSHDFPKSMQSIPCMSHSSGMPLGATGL

What is called Ki is the dissociation constant of the complex between target and ligand, obtained from inhibition or displacement. The low end stands for higher affinity, the high end for lower affinity. With `O=C(O)[C@@H]1C[C@H]2C[C@@H](CCc3nn[nH]n3)CC[C@H]2CN1`, the Ki in experiment [1] was greater than 10 µM; in experiment [2], greater than 10 µM; in experiment [3] it was 4.2 µM; on Glutamate receptor 4, greater than 10 µM.

As for `O=C(O)c1ccc(C[C@H]2CC[C@H]3CN[C@H](C(=O)O)C[C@H]3C2)cc1` [LY 382884], the Ki in experiment [1] was greater than 10 µM; on Glutamate receptor 2, greater than 10 µM; in experiment [2], greater than 10 µM; in experiment [3], 4 µM; on Glutamate receptor 1, greater than 10 µM; on Glutamate receptor 4, greater than 10 µM.

As for `O=C(O)[C@@H]1C[C@H]2C[C@@H](Nc3ccccc3-c3nnn[nH]3)CC[C@H]2CN1` [LY 457691], in experiment [3], the inhibition constant Ki was found to be 1.55 µM.

Turning to `O=C(O)[C@@H]1C[C@H]2CC(COCc3nnn[nH]3)CC[C@H]2CN1` (some centres undefined) [LY-294486], the Ki was greater than 10 µM on Glutamate receptor 2 and 3.06 µM in experiment [3].

`O=C(O)[C@@H]1C[C@H]2C[C@@H](CS(=O)(=O)c3nnc[nH]3)CC[C@H]2CN1` [LY-302679] came in with a Ki in experiment [3] of 3.41 µM.

In turn, `O=C(O)[C@@H]1C[C@H]2C[C@@H](Oc3ccccc3-c3nnn[nH]3)CC[C@H]2CN1` [LY-458545] yielded a Ki in experiment [3] of 1.69 µM.

On to `O=C(O)C1CC(F)(F)CN1C[C@H]1CC[C@H]2CN[C@H](C(=O)O)C[C@H]2C1` (some centres undefined) [LY-466195], for which the inhibitory constant (Ki) at Glutamate receptor 2 was greater than 10 µM; in experiment [2] it was greater than 10 µM; in experiment [3], 0.05 µM; on Glutamate receptor 1, greater than 10 µM; at Glutamate receptor 4, greater than 10 µM.

With `CCC(C)OC(=O)[C@@H]1C[C@H]2C[C@@H](Oc3ccccc3-c3nnn[nH]3)CC[C@H]2CN1` (some centres undefined) [LY-467711], the Ki on Glutamate receptor 2 was greater than 10 µM; in experiment [3] it was 7.4 µM.

Turning to `CCC(CC)COC(=O)[C@@H]1C[C@H]2C[C@@H](Nc3ccccc3-c3nnn[nH]3)CC[C@H]2CN1` [LY-525327], the inhibition constant (Ki) (on Glutamate receptor 2; in experiment [3]) was greater than 10 µM each time.
